Experimental data: patent US9889146B2, “Benzoxaborole compounds and uses thereof” (priority 2012, dated 2018)
≈ marks a conversion by molar mass, not a printed value. Read-outs that look alike come from different tables or passages of the source.

Legend:
Format in all cases: cell-based
[1] = tested on: P. aeruginosa ATCC 27853, E. coli ATCC 25922 and K. pneumoniae ATCC 13883; assay: MIC in M9 minimal media, three strains summarised; conditions: all GSK2251052 resistant mutants
Experimental: (§1) Spontaneous Resistance Frequency was determined in vitro for GSK2251052 and the resistance mutants in E. coli ATCC 25922, K. pneumoniae ATCC 13883, and P. aeruginosa ATCC 27853 strains were characterized. GSK2251052 was prepared as described in U.S. Pat. No. 7,816,344 (the entire contents of which are hereby incorporated by reference herein). LB broth, Mueller Hinton II broth (adjusted), and Difco noble agar were obtained from Becton Dickinson (Cockeysville, Md., USA). M9 minimal broth containing 1×M9 salt, 0.5 μg/ML thiamine, 1 mM MgSO4, 0.1 mM CaCl2, 2% glucose, was obtained from Teknova (Hollister, Calif., USA). Antibacterial agents ciprofloxacin, ceftazidime, chloramphenicol, gentamycin, kanamycin, polymixin B, tobramycin and trimethoprim, and amino acids were obtained from Sigma Chemicals (St. Louis, Mo., USA). Strains were obtained from ATCC (Manassas, Va., USA).
(§2) Susceptibility tests were performed following the recommendations for aerobic bacteria (M7-A7) from the Clinical and Laboratories Standards Institute (CLSI).
The aminoacyl-tRNA synthetase enzyme, LeuRS, ensures the correct amino acid, leucine, is attached to tRNA^Leu. The LeuRS synthetic active site is capable of aminoacylating tRNA^Leu with amino acids structural similar to leucine (norvaline, norleucine, isoleucine and methionine). […]

[2] = tested on: Escherichia coli 1161435 parent and mutant strains B4, B26 and B35; assay: Sensitivity to leucine analogs in MH and M9 media
[3] = tested on: E. coli ATCC 25922 wild type and mutants; assay: MIC in M9 minimal media; conditions: Escherichia coli, read-out: MICs in M9 minimal media
Experimental: as §1, §2
(§3) The aminoacyl-tRNA synthetase enzyme, LeuRS, ensures the correct amino acid, leucine, is attached to tRNA^Leu. The LeuRS synthetic active site is capable of aminoacylating tRNA^Leu with amino acids structural similar to leucine (norvaline, norleucine, isoleucine and methionine). These mischarged tRNA^Leu are hydrolyzed by the editing domain, thus preventing the deleterious incorporation of incorrect amino acids into the growing polypeptide. The laboratory generated mutants were further tested for their ability to grow in defined media with exogenously added amino acids. Norvaline and norleucine, structurally similar to leucine, were tested in M9 minimal media. […]

[4] = tested on: K. pneumoniae ATCC 13883 wild type and mutants; assay: MIC in M9 minimal media; conditions: Klebsiella pneumoniae, read-out: MICs in M9 minimal media
Experimental: as §1, §2, §3

[5] = tested on: P. aeruginosa ATCC 27853 wild type and mutants; assay: MIC in M9 minimal media; conditions: Pseudomonas aeruginosa, read-out: MICs in M9 minimal media
Experimental: as §1, §2, §3

E. coli = assay: Inhibition of bacterial growth on agar plates; conditions: preliminary studies
[6] = tested on: E. coli isolates from subject E. coli 1; assay: MIC in M9 minimal media of clinical isolates, subject E. coli 1; conditions: Escherichia coli
Experimental: The E. coli and P. mirabilis strains were cultured on Trypticase Soy Agar/5% blood plates (Becton Dickinson BBL), in cation adjusted Mueller-Hinton II Broth, or in M9 minimal salts (Becton Dickinson) broth containing 0.4% glucose and 200 uM MgSO4. L-Norvaline (Sigma-Aldrich) was prepared at a concentration of 6.4 mg/ml in […], in a final volume of approx 0.5 ml, and stored at −20° C. until required.
Minimum inhibitory concentrations (MICs) were determined using the CLSI (Clinical and Laboratory Standards Institute, formerly NCCLS) recommended broth microdilution methodology [NCCLS, 2003] using defined media.
Throughout this study E. coli and P. mirabilis strains were cultured on Trypticase Soy Agar/5% blood plates, on M9 salts/1.2% Bacto Agar plates, in Cation Adjusted Mueller-Hinton II Broth (CAMHB), or in M9 Minimal Salt Broth containing 0.4% glucose and 200 μM MgSO4. GSK2251052 and norvaline were prepared at a concentration of 6.4 mg/mL (free base) in 100% DMSO and 100% water respectively, aliquoted in 0.5 mL individual stocks, and stored at −20° C. until required.
Minimum inhibitory concentrations (MICs) were determined for each organism using the CLSI (Clinical and Laboratory Standards Institute) recommended broth microdilution methodology [CLSI, 2009].
Strains tested are detailed in Table 15. MICs for norvaline and GSK2251052 could only be determined for E. coli isolates from subject E. coli 1 (Table 16) as M9 Minimal Media could not sustain growth of E. coli isolates from subject E. coli 2 (isolates 2a-2o) or P. mirabilis isolates (isolates 3a-3c) from subject E. coli 3. […] This phenotype is consistent with a mutation in the editing site of LeuRS, which could also be responsible for the concomitant decrease in susceptibility to GSK2251052 observed in isolates from Days 2, 3 and 4 (Table 16).

With CCC[C@H](N)C(=O)O [Norvaline, L-Norvaline] the “sensitivity of the resistant mutants” value [1] was “High sensitivity”, the MIC (sensitivity to leucine analogs) ([2]; 1161435 Parent, M9) was greater than 128 µg/mL and the MIC (sensitivity to leucine analogs) ([2]; 1161435 Parent, MH) was greater than 128 µg/mL. The MIC (sensitivity to leucine analogs) ([2]; B4 (P339L), M9) was 2 µg/mL, the MIC (sensitivity to leucine analogs) ([2]; B4 (P339L), MH) was greater than 128 µg/mL and the MIC (sensitivity to leucine analogs) ([2]; B26 (R334H), M9) was 16 µg/mL. It also gave an MIC (sensitivity to leucine analogs) ([2]; B26 (R334H), MH) greater than 128 µg/mL, an MIC (sensitivity to leucine analogs) ([2]; B35 (D251N), M9) of 64 µg/mL and an MIC (sensitivity to leucine analogs) ([2]; B35 (D251N), MH) greater than 128 µg/mL. The “sensitivity of the mutants” value ([2]; mutant strains in M9 minimal media) was “most sensitivity”, the MIC ([3]; ATCC25922, E 101(leuRS Y246H)) was 4 µg/mL (≈ 34.1 µM) and the MIC ([3]; ATCC25922, E 102(leuRS D345G)) was 0.5 µg/mL (≈ 4.27 µM). The MIC ([3]; ATCC25922, E 107(leuRS G229S)) was 1 µg/mL (≈ 8.54 µM), the MIC ([3]; ATCC25922, E. coli ATCC25922) was 32 µg/mL (≈ 273 µM) and the MIC ([4]; ATCC13883, K 104(leuRS D345Y)) was 1 µg/mL (≈ 8.54 µM). It also gave an MIC ([4]; ATCC13883, K 105(leuRS G229R)) of 4 µg/mL (≈ 34.1 µM), an MIC ([4]; ATCC13883, K 107(leuRS S227F)) of 4 µg/mL (≈ 34.1 µM) and an MIC ([4]; ATCC13883, K 108(leuRS T248P)) of 2 µg/mL (≈ 17.1 µM). For the same molecule, the MIC ([4]; ATCC13883, K 110(leuRS V338L)) was 4 µg/mL (≈ 34.1 µM), the MIC ([4]; ATCC13883, Klebsiella pneumoniae ATCC13883) was 16 µg/mL (≈ 137 µM) and the MIC ([5]; ATCC27853, P 101 (leuRS T256P)) was 4 µg/mL (≈ 34.1 µM). For the same molecule, the MIC ([5]; ATCC27853, P 106 (leuRS V342M)) was 0.25 µg/mL (≈ 2.13 µM), the MIC ([5]; ATCC27853, P 108 (leuRS T252P)) was 0.25 µg/mL (≈ 2.13 µM) and the MIC ([5]; ATCC27853, P. aeruginosa ATCC27853) was greater than 64 µg/mL. The “concentration at which a bacterial lawn could still be observed” value (E. coli) was greater than 64 µg/mL, the MIC ([6]; 24 h, Isolate 1a, Blood, Day 1, read-out: MIC in M9 Minimal Media) was 4 µg/mL (≈ 34.1 µM) and the MIC ([6]; 24 h, Isolate 1b, Urine, Day 1, read-out: MIC in M9 Minimal Media) was 2 µg/mL (≈ 17.1 µM). For the same molecule, the MIC ([6]; 24 h, subject E. Coli 1, day 1, first line, no LeuRS change, read-out: Norvaline MIC in M9) was 4 µg/mL (≈ 34.1 µM), the MIC ([6]; 24 h, subject E. Coli 1, day 1, second line, no LeuRS change, read-out: Norvaline MIC in M9) was 2 µg/mL (≈ 17.1 µM) and the MIC ([6]; 48 h, Isolate 1c, Blood, Day 2, read-out: MIC in M9 Minimal Media) was 0.5 µg/mL (≈ 4.27 µM). It also gave an MIC ([6]; 72 h, read-out: Norvaline MIC in M9) of 0.5 µg/mL (≈ 4.27 µM), an MIC ([6]; 96 h, Isolate 1e, Blood, Day 4, read-out: MIC in M9 Minimal Media) of 0.5 µg/mL (≈ 4.27 µM) and an MIC ([6]; Isolate 1d, Blood, Day 3, read-out: MIC in M9 Minimal Media) of 0.5 µg/mL (≈ 4.27 µM).
